Tests used:
SARS-CoV-2 M^pro = SARS-CoV-2 M^pro (Severe acute respiratory syndrome coronavirus 2, UniProt P0DTD1); experiment: In vitro FRET M^pro inhibition assay; assay type: biochemical; settings: 50 nM M^pro; for IC50: FRET assay, inhibitor 3.125-100 μM, read-out: IC50 against M^pro enzymatic activity; for inhibition at 50 µM: initial screen at 50 μM compound, read-out: inhibitory activity against M^pro
M^pro [1] = target: T1, M^pro (Severe acute respiratory syndrome coronavirus 2, UniProt P0DTD1); experiment: Bio-layer interferometry binding kinetics assay; set-up: species or system SARS-CoV-2; settings: BLI, 1:1 binding model, 30 °C; for Kd: KD = koff/kon
[2] = set-up: method as in earlier work; settings: in animals; cited from earlier work
M^pro [3] = target: T1, M^pro; settings: at a concentration of 50 μM; cited from earlier work

## O=C(CC[C@@H](C(=O)Nc1cccc([N+](=O)[O-])c1)n1cnc2ccccc2c1=O)Nc1cccc([N+](=O)[O-])c1 [G1]
SARS-CoV-2 M^pro
  IC50: ~20 µM
  inhibition at 50 µM: > 50%
M^pro [1]
  koff: 0.00325 s⁻¹
  kon: 125 M⁻¹ s⁻¹
  Kd: 26 µM

## Nc1ccc(OC(=O)CC[C@@H](C(=O)Oc2ccc(N)c([N+](=O)[O-])c2)n2cnc3ccccc3c2=O)cc1[N+](=O)[O-] [G4]
SARS-CoV-2 M^pro
  IC50: ~20 µM
  inhibition at 50 µM: > 50%
M^pro [1]
  koff: 0.413 s⁻¹
  kon: 16200 M⁻¹ s⁻¹
  Kd: 25.5 µM

## CC(C)CC(NC(=O)OCc1ccccc1)C(=O)NC(CC1CCNC1=O)C(O)S(=O)(=O)O (stereo not shown) [GC376]
[2]
  side effects: delayed adult teeth development

## COc1cccc(Nc2c(C(N)=O)cnc3c(C)cc(S(=O)(=O)c4cccc(C(=O)N(C)C)c4)cc23)c1 [GSK-256066]
M^pro [3]
  M^pro inhibitory activity: more than 30%

## CC(O)(CS(=O)(=O)c1ccc(F)cc1)C(=O)Nc1ccc(C#N)c(C(F)(F)F)c1 (stereo not shown) [bicalutamide]
M^pro [3]
  M^pro inhibitory activity: more than 30%

From publication PMC9963287 (Viruses, 2023)
